As usually defined, the IC50 is the concentration at which inhibition is half-maximal.

For assay [1], the target named is T1, HDAC-6 (Homo sapiens, UniProt Q9UBN7).
T1 sequence (Q9UBN7 1-1215): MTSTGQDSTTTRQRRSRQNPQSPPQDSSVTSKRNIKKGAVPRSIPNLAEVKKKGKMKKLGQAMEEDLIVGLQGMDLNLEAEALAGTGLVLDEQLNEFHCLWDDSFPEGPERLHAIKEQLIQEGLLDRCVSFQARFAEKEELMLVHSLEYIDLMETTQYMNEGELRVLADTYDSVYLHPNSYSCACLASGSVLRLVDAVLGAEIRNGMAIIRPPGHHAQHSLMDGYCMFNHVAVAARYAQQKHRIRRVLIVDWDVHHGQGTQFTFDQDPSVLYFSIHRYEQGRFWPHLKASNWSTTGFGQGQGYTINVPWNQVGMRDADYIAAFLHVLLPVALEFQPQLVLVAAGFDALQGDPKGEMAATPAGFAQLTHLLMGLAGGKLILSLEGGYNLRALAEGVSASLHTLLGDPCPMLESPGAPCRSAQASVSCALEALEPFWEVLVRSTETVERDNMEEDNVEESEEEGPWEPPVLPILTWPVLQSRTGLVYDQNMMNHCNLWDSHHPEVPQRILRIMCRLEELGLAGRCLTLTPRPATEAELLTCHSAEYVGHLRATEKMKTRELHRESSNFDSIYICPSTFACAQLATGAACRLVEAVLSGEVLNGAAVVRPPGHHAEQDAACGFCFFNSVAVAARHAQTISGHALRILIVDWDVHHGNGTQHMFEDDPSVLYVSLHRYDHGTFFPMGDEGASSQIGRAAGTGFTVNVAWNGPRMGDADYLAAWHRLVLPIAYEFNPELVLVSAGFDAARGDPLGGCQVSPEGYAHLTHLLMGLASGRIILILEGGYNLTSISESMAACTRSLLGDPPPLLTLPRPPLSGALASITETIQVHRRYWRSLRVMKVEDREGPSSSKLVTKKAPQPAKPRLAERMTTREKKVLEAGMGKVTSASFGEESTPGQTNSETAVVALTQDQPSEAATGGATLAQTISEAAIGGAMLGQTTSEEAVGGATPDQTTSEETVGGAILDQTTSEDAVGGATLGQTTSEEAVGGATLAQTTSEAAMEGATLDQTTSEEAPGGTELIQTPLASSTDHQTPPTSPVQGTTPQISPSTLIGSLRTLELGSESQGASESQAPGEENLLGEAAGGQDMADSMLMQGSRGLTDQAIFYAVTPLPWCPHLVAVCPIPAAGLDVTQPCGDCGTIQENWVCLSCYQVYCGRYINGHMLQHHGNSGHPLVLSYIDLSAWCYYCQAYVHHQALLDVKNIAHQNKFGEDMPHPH
Description: Enzyme inhibitory activity, HD6. It counts as biochemical. The conditions noted are these: read-out: IC50 HD 6.

Assay [2] relates to prostate cancer cell line Du145. Description: MTT assay, Du145. It counts as cell-based. The conditions noted are these: Homo sapiens, DU-145; 72 hours. The protocol:
(§1) Effects of HDAC isotype-specific small molecule inhibitors on growth inhibition of various human cancer cells (from ATCC) in vitro were determined by MTT assays. Briefly, cells seeded in 96-well plates were incubated for 72 hours at 37° C. in a 5% CO2 incubator. MTT (Sigma) was added at a final concentration of 0.5 mg/ml and incubated with the cells for 4 hours before an equal volume of solubilization buffer (50% N,N-dimethylformamide, 20% SDS, pH 4.7) was added onto cultured cells. After overnight incubation, solubilized dye was quantified by colorimetric reading at […] using a reference at 630 nM. OD values were converted to cell numbers according to a standard growth curve of the relevant cell line. The concentration which reduces cell numbers to 50% of those of DMSO-treated cells is determined as MTT IC50. In Table 4, IC50s of several HDAC7 or HDAC8 inhibitors in MTT assays in various human cancer cell lines were listed. They include colon cancer cells HCT116 and SW48, lung cancer cells A549 and H446, breast cancer cells MCF-7 and MDAmb231, a prostate cancer cell line Du145 and a bladder cancer cell line T24.
For orientation: Formazan colour is commonly taken as a measure of viable cells.

Assay [3] deals with colon cancer cells HCT116. Description: MTT assay, HCT116. The class given is cell-based, human. The following applies: Homo sapiens, HCT-116; 72 hours. On the procedure: as §1
The target in assay [4] is HDAC-1 (Homo sapiens, UniProt Q13547). Description: Enzyme inhibitory activity, HD1. It counts as biochemical. The following applies: read-out: IC50 HD 1.
HDAC-1, sequence (Q13547 whole entry): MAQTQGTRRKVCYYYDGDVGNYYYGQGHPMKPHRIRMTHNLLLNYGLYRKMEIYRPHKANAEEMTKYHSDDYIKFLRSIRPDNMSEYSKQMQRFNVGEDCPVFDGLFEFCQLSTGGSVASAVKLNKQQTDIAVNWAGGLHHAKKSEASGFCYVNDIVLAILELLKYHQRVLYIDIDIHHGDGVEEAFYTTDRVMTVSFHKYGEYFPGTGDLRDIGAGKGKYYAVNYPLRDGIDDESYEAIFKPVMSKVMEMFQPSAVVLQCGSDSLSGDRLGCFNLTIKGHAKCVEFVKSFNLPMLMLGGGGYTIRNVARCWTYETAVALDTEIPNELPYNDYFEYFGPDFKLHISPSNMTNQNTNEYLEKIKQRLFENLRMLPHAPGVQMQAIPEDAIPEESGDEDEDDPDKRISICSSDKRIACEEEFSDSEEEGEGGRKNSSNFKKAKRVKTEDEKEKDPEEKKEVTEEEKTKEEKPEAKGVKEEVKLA
Assay [5] has as its system colon cancer cells SW48. Description: MTT assay, SW48. It counts as cell-based. The conditions noted are these: Homo sapiens, 72 hours, read-out: MTT IC50 SW 48. The protocol:
as §1

The test system of assay [6] is lung cancer cells A549. Description: MTT assay, A549. It counts as cell-based. The conditions noted are these: Homo sapiens, 72 hours, read-out: IC50 A 549 (MTT). The protocol:
as §1

Assay [7] has as its system breast cancer cells MCF-7. Description: MTT assay, MCF-7. It counts as cell-based. The conditions noted are these: Homo sapiens, MCF7; 72 hours. The protocol:
as §1

Assay [8] has as its system breast cancer cells MDAmb231. Description: MTT assay, MDAmb231. The class given is cell-based. The following applies: Homo sapiens, MDA-MB-231; 72 hours. On the procedure:
as §1

For assay [9], the system named is bladder cancer cell line T24. Description: MTT assay, T24. The class given is cell-based. The following applies: Homo sapiens; 72 hours; read-out: MTT IC50 T 24. On the procedure: as §1
Assay [10] relates to lung cancer cells H446. Description: MTT assay, H446. The class given is cell-based. The following applies: Homo sapiens, NCI-H446; 72 hours; read-out: MTT IC50 H 446. On the procedure:
as §1

Assay [11] addresses HDAC-4 (Homo sapiens, UniProt P56524). Description: Enzyme inhibitory activity, HD4. The class given is biochemical.
In assay [12] the target is T2, HDAC-8 (Homo sapiens, UniProt Q9BY41).
T2 sequence (Q9BY41 1-377): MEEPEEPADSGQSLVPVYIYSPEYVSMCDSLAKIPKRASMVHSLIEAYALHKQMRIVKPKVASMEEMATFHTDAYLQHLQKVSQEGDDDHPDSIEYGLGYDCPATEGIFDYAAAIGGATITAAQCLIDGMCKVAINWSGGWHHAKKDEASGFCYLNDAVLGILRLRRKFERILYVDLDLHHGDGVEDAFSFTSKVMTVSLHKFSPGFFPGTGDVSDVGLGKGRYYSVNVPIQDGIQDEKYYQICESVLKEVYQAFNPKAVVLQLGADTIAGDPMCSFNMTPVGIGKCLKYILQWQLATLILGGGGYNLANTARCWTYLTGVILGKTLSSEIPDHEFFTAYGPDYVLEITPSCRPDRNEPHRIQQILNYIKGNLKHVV
Description: Enzyme inhibitory activity, HD8. It counts as biochemical. The conditions noted are these: read-out: IC50 HD 8.

Each structure is given as a SMILES string.

HDAC-4, sequence (P56524 whole entry): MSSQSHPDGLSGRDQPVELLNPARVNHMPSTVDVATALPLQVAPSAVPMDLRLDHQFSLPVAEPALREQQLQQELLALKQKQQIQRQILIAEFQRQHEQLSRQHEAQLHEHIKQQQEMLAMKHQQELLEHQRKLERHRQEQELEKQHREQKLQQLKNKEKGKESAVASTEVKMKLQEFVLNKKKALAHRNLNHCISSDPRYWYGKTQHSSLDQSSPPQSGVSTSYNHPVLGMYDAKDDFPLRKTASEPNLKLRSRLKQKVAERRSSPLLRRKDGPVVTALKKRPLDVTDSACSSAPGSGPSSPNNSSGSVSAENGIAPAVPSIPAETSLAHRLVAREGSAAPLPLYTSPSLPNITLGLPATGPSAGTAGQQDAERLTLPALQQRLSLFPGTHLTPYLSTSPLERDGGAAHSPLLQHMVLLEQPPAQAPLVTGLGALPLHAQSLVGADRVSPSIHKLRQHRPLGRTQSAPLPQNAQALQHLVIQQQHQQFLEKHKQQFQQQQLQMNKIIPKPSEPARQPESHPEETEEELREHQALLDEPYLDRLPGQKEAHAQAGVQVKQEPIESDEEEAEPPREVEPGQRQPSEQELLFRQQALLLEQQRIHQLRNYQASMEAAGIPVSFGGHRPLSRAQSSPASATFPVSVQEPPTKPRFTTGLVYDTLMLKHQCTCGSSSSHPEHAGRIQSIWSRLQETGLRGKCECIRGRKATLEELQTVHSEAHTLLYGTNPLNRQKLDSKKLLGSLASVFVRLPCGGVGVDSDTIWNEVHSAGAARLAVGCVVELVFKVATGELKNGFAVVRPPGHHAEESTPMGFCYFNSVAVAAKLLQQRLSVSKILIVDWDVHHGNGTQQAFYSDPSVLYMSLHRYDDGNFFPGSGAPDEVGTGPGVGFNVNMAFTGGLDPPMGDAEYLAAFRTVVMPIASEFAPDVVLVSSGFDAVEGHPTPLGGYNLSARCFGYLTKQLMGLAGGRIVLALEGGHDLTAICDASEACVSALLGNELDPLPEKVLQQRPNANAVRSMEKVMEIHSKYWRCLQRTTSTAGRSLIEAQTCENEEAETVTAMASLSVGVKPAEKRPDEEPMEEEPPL

Regarding `Nc1ccccc1NC(=O)c1ccc(CSc2nc3ccccc3[nH]2)cc1` [Compound 16, N-(2-Amino-phenyl)-4-(1H-benzimidazol-2-ylsulfanylmethyl)-benzamide], the IC50 in assay [1] was above 50000 nM; in assay [2], 700 nM; in assay [3], 200 nM; in assay [4], 300 nM; in [5], 2000 nM; in [6] it was 2000 nM. Besides, the IC50 in assay [7] was found to be 3000 nM; in assay [8], 1000 nM; in assay [9], 1000 nM; in assay [10] it was 1000 nM; in assay [11] it was 29000 nM.
Take `Cc1ccc(S(=O)(=O)Nc2ccc(/C=C/C(=O)Nc3ccccc3N)cc2)cc1` [Compound 5, N-(2-Aminophenyl)-3-[4-(4-methylbenzenesulfonylamino)-phenyl]-acrylamide]: the IC50 in assay [1] is above 50000 nM; in assay [2], 2000 nM; in [12] it was above 50000 nM; in assay [3] it was 4000 nM; in [5] it was 10000 nM; in assay [6], 8000 nM. The IC50 in [7] was 6000 nM; in assay [8], 2000 nM; in assay [9], 8000 nM; in assay [10] it was 1000 nM.
In the case of `COc1ccc(-c2ccnc(NCc3ccc(C(=O)Nc4ccccc4N)cc3)n2)cc1OC` [Compound 21, N-(2-Amino-phenyl)-4-{[4-(3,4-dimethoxy-phenyl)-pyrimidin-2-ylamino]-methyl}-benzamide], the IC50 in assay [1] was above 50000 nM; in assay [2] it was 500 nM; in assay [12], above 50000 nM; in assay [3], 100 nM; in assay [4], 4000 nM; in assay [5], 800 nM. The IC50 was 300 nM in assay [6]; 700 nM in [7]; 500 nM in [8]; 300 nM in [10]; above 50000 nM in [11].
Consider `COc1ccc(NCc2ccc(C(=O)Nc3ccccc3N)cc2)cc1OC` [Compound 17, N-(2-Aminophenyl)-4-[(3,4-dimethoxyphenylamino)-methyl]-benzamide], for which the IC50 in assay [1] is above 50000 nM; in assay [2], 2000 nM; in [12], above 50000 nM; in assay [3], 400 nM; in [4], 2000 nM; in [5] it was 2000 nM. Also, the 50% inhibitory concentration (IC50) in [6] was 3000 nM; in assay [7], 3000 nM; in [8], 2000 nM; in assay [9], 2000 nM; in [10], 900 nM; in [11] it was above 50000 nM.

Source of the values: US20040072770A1, “Methods for specifically inhibiting histone deacetylase-7 and 8” (priority 2002, published 2004).
